pIC50: −log10 of the molar value. Like-named read-outs stand apart in the source and are kept apart here.
How the values were obtained:
[1] = biological target: T1, BTK enzyme (full-length BTK, hBTK) (Homo sapiens, UniProt Q06187); assay: Btk enzyme activity assay (LANCE TR-FRET); assay type: biochemical; details: 50 pM hBTK, 25 μM ATP, 60 minute compound and enzyme incubation, read-out: BTK binding IC50
T1 construct: recombinant protein from baculovirus-transfected Sf9 cells: full-length BTK, 6HIS-tag cleaved; 6HIS (cleaved yes); made in house; host or cells: baculovirus-transfected Sf9 cells
T1 sequence (Q06187 whole entry): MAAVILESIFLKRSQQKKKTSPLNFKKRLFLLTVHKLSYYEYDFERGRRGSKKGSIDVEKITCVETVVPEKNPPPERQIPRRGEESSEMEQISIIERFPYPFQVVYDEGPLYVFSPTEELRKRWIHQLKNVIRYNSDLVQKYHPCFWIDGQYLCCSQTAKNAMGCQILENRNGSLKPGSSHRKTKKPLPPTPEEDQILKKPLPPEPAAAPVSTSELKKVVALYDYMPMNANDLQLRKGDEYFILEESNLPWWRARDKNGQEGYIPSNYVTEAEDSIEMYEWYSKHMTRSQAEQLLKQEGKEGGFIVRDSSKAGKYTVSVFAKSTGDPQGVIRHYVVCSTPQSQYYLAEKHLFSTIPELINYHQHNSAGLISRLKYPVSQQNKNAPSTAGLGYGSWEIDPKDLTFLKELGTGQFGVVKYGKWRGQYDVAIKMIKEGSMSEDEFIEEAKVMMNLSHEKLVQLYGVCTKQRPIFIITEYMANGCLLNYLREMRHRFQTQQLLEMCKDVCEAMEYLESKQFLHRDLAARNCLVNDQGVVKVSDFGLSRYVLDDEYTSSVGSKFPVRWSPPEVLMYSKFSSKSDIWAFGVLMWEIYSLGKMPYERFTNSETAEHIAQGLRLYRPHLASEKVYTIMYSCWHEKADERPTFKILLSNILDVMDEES
Protocol: BTK enzymatic activity was determined with the LANCE (Lanthanide Chelate Excite) TR-FRET (Time-resolved fluorescence resonance energy transfer) assay. […] To each well of a black non-binding surface Corning 384-well microplate (Corning Catalog #3820), 5 nL of compound (2000 fold dilution in final assay volume of 10 μL) was dispensed, followed by the addition of 7.5 μL of 1× kinase buffer (50 mM Hepes 7.5, 10 mM MgCl2, 0.01% Brij-35, 1 mM EGTA, 0.05% BSA & 1 mM DTT) containing 5.09 pg/μL (66.67 pM) of BTK enzyme (recombinant protein from baculovirus-transfected Sf9 cells: full-length BTK, 6HIS-tag cleaved). Following a 60 minute compound and enzyme incubation, each reaction was initiated by the addition of 2.5 μL 1× kinase buffer containing 8 μM biotinylated “A5” peptide (Biotin-[…]-NH2) (SEQ.ID.NO.: 1), and 100 μM ATP. The final reaction in each well of 10 μL consists of 50 pM hBTK, 2 μM biotin-A5-peptide, and 25 μM ATP. Phosphorylation reactions were allowed to proceed for 120 minutes. Reactions were immediately quenched by the addition of 20 uL of 1× quench buffer (15 mM EDTA, 25 mM Hepes 7.3, and 0.1% Triton X-100) containing detection reagents (0.626 nM of LANCE-Eu-W1024-anti-phosphoTyrosine antibody, PerkinElmer and 86.8 nM of Streptavidin-conjugated Dylight 650, Dyomics/ThermoFisher Scientific). After 60 minutes incubation with detection reagents, reaction plates were read on a PerkinElmer EnVision plate reader using standard TR-FRET protocol. Briefly, excitation of donor molecules (Eu-chelate:anti-phospho-antibody) with a laser light source at 337 nm produces energy that can be transferred to Dylight-650 acceptor molecules if this donor:acceptor pair is within close proximity. Fluorescence intensity at both 665 nm (acceptor) and 615 nm (donor) are measured and a TR-FRET ratio calculated for each well (acceptor intensity/donor intensity). IC50 values were determined by 4 parameter robust fit of TR-FRET ratio values vs. (Log10) compound concentrations.
The following Table 2 provides specific IC50 values for all the examples. The IC50 values set forth below were determined according to Assay method described above.

[2] = test system: adenosine uptake into HeLa cells; assay: [3H]Adenosine uptake assay in HeLa cells; assay type: cell-based; details: 60 minutes uptake, read-out: ADU inhibition IC50 (adenosine uptake inhibition potency)
Protocol: Compounds were also screened in an adenosine uptake functional cellular assay using the protocol described below.
Adenosine uptake activity was determined by monitoring the accumulation of tritiated adenosine into HeLa cells (ATCC catalog # CCL-2) using a PMT-based radiometric detection instrument. In this assay, the potency (IC50) of each compound was determined from a ten point (1:3 serial dilution; final compound concentration range in assay from 10 μM to 0.032 nM) titration curve using the following outlined procedure. To each well of a 96-well CytoStar-T scintillating microplate (Perkin Elmer Catalog # RPNQ0163), 25 000 HeLa cells in 100 μL of growth medium comprising: Minimum Essential Media (Life Technologies Catalog # 11095-080)+10% (v/v) foetal bovine serum (FBS; Sigma Aldrich Catalog # F2442) was added. These cells were incubated overnight at 37° C. in a humidified atmosphere with 5% (v/v) CO2. After this time the growth medium was removed and replaced with 40 μL assay medium comprising: Hanks balanced salts solution (HBSS; Thermo Fisher Catalog # SH30268.01)+5% (v/v) FBS. Compound stock solutions in DMSO were diluted in assay medium to 2.5× final compound concentration maintaining a constant DMSO concentration of 0.25% (v/v). 40 μL of compound in assay medium was dispensed into individual wells of the Cytostar-T plates and the plates were incubated for 30 minutes under ambient laboratory conditions. Following this incubation, 20 μL of 500 nM [^3H]adenosine (American Radiolabeled Chemicals Inc. Catalog # ART0287) in assay medium was added and incubated for a further 60 minutes under ambient laboratory conditions. The amount of radiolabel accumulation was then determined using a Perkin Elmer Topcount NXT microplate reader. In brief, HeLa cells adhere to the bottom of the Cytostar-T plate, uptake of [^3H]adenosine into these cells brings the radiolabel into sufficient proximity to excite the scintillant in the base of the plates. These events are captured by single PMT, time-resolved coincidence counting. IC50 values were determined by 4 parameter robust fit of counts per second values vs. (Log10) compound concentrations.

Compound	pIC50 [1]	pIC50 ([2]; Homo sapiens, HeLa)	pIC50 [2]
CCOc1cc(C(=O)Nc2cc(C(F)(F)F)ccn2)ccc1-c1nc([C@H]2CC[C@H]3N(C2)C(=O)C2(CC2)C3(F)F)n2ccnc(N)c12 [Compound 2, 4-(8-amino-3-((6′S,8a′R)-1′,1′-difluoro-3′-oxohexahydro-1′H-spiro[cyclopropane-1,2′-indolizin]-6′-yl)imidazo[1,5-a]pyrazin-1-yl)-3-ethoxy-N-(4-(trifluoromethyl)pyridin-2-yl)benzamide]	7.93	6.05	–
CCOc1cc(C(=O)Nc2cc(C(F)(F)F)ccn2)ccc1-c1nc([C@@H]2CC[C@@H]3N(C2)C(=O)C2(CC2)C3(F)F)n2ccnc(N)c12 [Compound 3, 4-(8-amino-3-((6′R,8a′S)-1′,1′-difluoro-3′-oxohexahydro-1′H-spiro[cyclopropane-1,2′-indolizin]-6′-yl)imidazo[1,5-a]pyrazin-1-yl)-3-ethoxy-N-(4-(trifluoromethyl)pyridin-2-yl)benzamide]	9.00	–	5.88
CCOc1cc(C(=O)Nc2cc(C(F)(F)F)ccn2)ccc1-c1nc([C@@H]2CC[C@H]3C(=O)C4(CC4)C(=O)N3C2)n2ccnc(N)c12 [Compound 5, 4-{8-amino-3-[(6′R,8a′S)-1′,3′-dioxohexahydrospiro[cyclopropane-1,2′-indolizin]-6′-yl]imidazo[1,5-a]pyrazin-1-yl}-3-ethoxy-N-[4-(trifluoromethyl)pyridin-2-yl]benzamide]	8.83	6.04	–
Nc1nccn2c([C@@H]3CC[C@H]4C(=O)C5(CC5)C(=O)N4C3)nc(-c3ccc(C(=O)Nc4cc(C(F)(F)F)ccn4)cc3)c12 [Compound 6, 4-{8-amino-3-[(6′R,8a′S)-1′,3′-dioxohexahydrospiro[cyclopropane-1,2′-indolizin]-6′-yl]imidazo[1,5-a]pyrazin-1-yl}-N-[4-(trifluoromethyl)pyridin-2-yl]benzamide]	9.07	6.82	–
Nc1nccn2c([C@@H]3CC[C@H]4C(=O)C5(CC5)C(=O)N4C3)nc(-c3ccc(C(=O)Nc4cc(C(F)(F)F)ccn4)cc3F)c12 [Compound 7, 4-{8-amino-3-[(6′R,8a′S)-1′,3′-dioxohexahydrospiro[cyclopropane-1,2′-indolizin]-6′-yl]imidazo[1,5-a]pyrazin-1-yl}-3-fluoro-N-[4-(trifluoromethyl)pyridin-2-yl]benzamide]	9.37	6.76	–
CCOc1cc(C(=O)Nc2cc(C(F)(F)F)ccn2)ccc1-c1nc([C@@H]2CC[C@H]3[C@@H](O)C4(CC4)C(=O)N3C2)n2ccnc(N)c12 [Compound 11, 4-{8-amino-3-[(1′S,6′R,8a′S)-1′-hydroxy-3′-oxohexahydrospiro[cyclopropane-1,2′-indolizin]-6′-yl]imidazo[1,5-a]pyrazin-1-yl}-3-ethoxy-N-[4-(trifluoromethyl)pyridin-2-yl]benzamide]	9.15	5.70	–
CCOc1cc(C(=O)Nc2cc(C(F)(F)F)ccn2)ccc1-c1nc([C@@H]2CC[C@H]3[C@@H](OC)C4(CC4)C(=O)N3C2)n2ccnc(N)c12 [Compound 14, 4-(8-amino-3-((1′S,6′R,8a′S)-1′-methoxy-3′-oxohexahydro-1′H-spiro[cyclopropane-1,2′-indolizin]-6′-yl)imidazo[1,5-a]pyrazin-1-yl)-3-ethoxy-N-(4-(trifluoromethyl)pyridin-2-yl)benzamide]	8.89	6.08	–
CCOc1cc(C(=O)Nc2cc(C(F)(F)F)ccn2)ccc1-c1nc([C@@H]2CC[C@H]3CN4CCC[C@@H]4C(=O)N3C2)n2ccnc(N)c12 [Compound 15, 4-{8-amino-3-[(5aS,8R,11aR)-11-oxodecahydro-1H-pyrido[1,2-a]pyrrolo[1,2-d]pyrazin-8-yl]imidazo[1,5-a]pyrazin-1-yl}-3-ethoxy-N-[4-(trifluoromethyl)pyridin-2-yl]benzamide]	9.34	5.95	–
CCOc1cc(C(=O)Nc2cc(C(F)(F)F)ccn2)ccc1-c1nc([C@@H]2CC[C@H]3CN4CCC[C@H]4C(=O)N3C2)n2ccnc(N)c12 [Compound 16, 4-{8-amino-3-[(5aS,8R,11aS)-11-oxodecahydro-1H-pyrido[1,2-a]pyrrolo[1,2-d]pyrazin-8-yl]imidazo[1,5-a]pyrazin-1-yl}-3-ethoxy-N-[4-(trifluoromethyl)pyridin-2-yl]benzamide]	9.31	5.78	–
CCOc1cc(C(=O)Nc2cc(C(F)(F)F)ccn2)ccc1-c1nc([C@@H]2CC[C@H]3CNC4(CCC4)C(=O)N3C2)n2ccnc(N)c12 [Compound 17, 4-{8-amino-3-[(7′R,9a′S)-4′-oxohexahydro-2′H-spiro[cyclobutane-1,3′-pyrido[1,2-a]pyrazin]-7′-yl]imidazo[1,5-a]pyrazin-1-yl}-3-ethoxy-N-[4-(trifluoromethyl)pyridin-2-yl]benzamide]	9.30	5.77	–

Now from value to molecule:

pIC50 [1]	pIC50 ([2]; Homo sapiens, HeLa)	pIC50 [2]	Compound
8.68	7.29	–	Cc1ccnc(NC(=O)c2ccc(-c3nc([C@@H]4CC[C@H]5C(=O)C6(CC6)C(=O)N5C4)n4ccnc(N)c34)cc2)c1 [Compound 8, 4-{8-amino-3-[(6′R,8a′S)-1′,3′-dioxohexahydrospiro[cyclopropane-1,2′-indolizin]-6′-yl]imidazo[1,5-a]pyrazin-1-yl}-N-(4-methylpyridin-2-yl)benzamide]
8.79	6.74	–	Nc1nccn2c([C@@H]3CC[C@H]4C(=O)C5(CC5)C(=O)N4C3)nc(-c3ccc(C(=O)Nc4cc(C5CC5)ccn4)cc3)c12 [Compound 9, 4-{8-amino-3-[(6′R,8a′S)-1′,3′-dioxohexahydrospiro[cyclopropane-1,2′-indolizin]-6′-yl]imidazo[1,5-a]pyrazin-1-yl}-N-(4-cyclopropylpyridin-2-yl)benzamide]
9.02	6.07	–	Nc1nccn2c([C@@H]3CC[C@H]4[C@@H](O)C5(CC5)C(=O)N4C3)nc(-c3ccc(C(=O)Nc4cc(C(F)(F)F)ccn4)cc3)c12 [Compound 10, 4-{8-amino-3-[(1′S,6′R,8a′S)-1′-hydroxy-3′-oxohexahydrospiro[cyclopropane-1,2′-indolizin]-6′-yl]imidazo[1,5-a]pyrazin-1-yl}-N-[4-(trifluoromethyl)pyridin-2-yl]benzamide]
9.42	6.02	–	Nc1nccn2c([C@@H]3CC[C@H]4[C@@H](O)C5(CC5)C(=O)N4C3)nc(-c3ccc(C(=O)Nc4cc(C(F)(F)F)ccn4)cc3F)c12 [Compound 12, 4-(8-amino-3-((1′S,6′R,8a′S)-1′-hydroxy-3′-oxohexahydro-1′H-spiro[cyclopropane-1,2′-indolizin]-6′-yl)imidazo[1,5-a]pyrazin-1-yl)-3-fluoro-N-(4-(trifluoromethyl)pyridin-2-yl)benzamide]
8.91	6.21	–	Nc1nccn2c([C@@H]3CC[C@H]4C(O)C5(CC5)C(=O)N4C3)nc(-c3ccc(C(=O)Nc4cc(C5CC5)ccn4)cc3)c12 (stereo partly drawn) [Compound 13, 4-(8-amino-3-((1′S,6′R,8a′S)-1′-hydroxy-3′-oxohexahydro-1′H-spiro[cyclopropane-1,2′-indolizin]-6′-yl)imidazo[1,5-a]pyrazin-1-yl)-N-(4-cyclopropanepyridin-2-yl)benzamide]

Reference: patent US10130630B2, “BTK inhibitors” (MERCK SHARP & DOHME CORP., priority 2014, dated 2018)
